The values below come from publication PMC7553643 (Bioorganic & medicinal chemistry letters, 2009).

Series [1] is described as follows: Pharmacokinetics in rats after single po and iv dosing. The conditions noted are these: for AUC(0-inf): plasma.
In series [2] the test system is Caco2. Briefly: Caco2 permeability. It is filed as in vitro ADME. A general note: Caco-2 cells form a polarised layer with tight junctions and transporters.
Series [3] in a line: Solubility.
Series [4] is described as follows: Caco2 permeability. It is filed as in vitro ADME. The note with it: human, Caco-2.
A short description of series [5]: Stability in rat liver microsomes. Type of series: in vitro ADME.
[6] abbreviates: rats, po, dose normalized to 30 mg/kg.

The solubility is the concentration that dissolves in the medium under given conditions. For orientation: half-life means the time in which the quantity being followed falls by half. Low values mean rapid decline, high ones slow decline. In general, AUC refers to the area under the concentration-time curve, a measure of exposure. Read a low AUC as low exposure. The Cmax is the peak of the concentration-time curve. What is called AUC(0-inf) is the area under the concentration-time curve extrapolated to infinity. Low values mean low exposure, high ones high exposure. What is called Papp is the rate of passage across a membrane or cell layer, normalised by area and donor concentration. A lower Papp goes with slow passage. As usually defined, the amount remaining is the share of the starting amount still present when the sample was taken.

Marks after values point to notes of the source that are not given here.

In turn, `CCCCN1C(=O)C(CC2CCCCC2)NC(=O)C12CCN(Cc1ccc(Oc3ccccc3)cc1)CC2.Cl` (centres unmarked) [Compound 1a] yielded a clearance in series [1] (rat, in vivo, iv, 30 mg/kg) of 113 mL/min/kg. This compound gave a BA in series [1] (rats, 30 mg/kg, po) of 1.9%. In addition, in series [1] (setting [6]), the “AUC (0-∞) (dose normalized to 30 mg/kg)” value is reported as 74.4^a ng h/m and the “Cmax (dose normalized to 30 mg/kg)” value is 16.7^a ng/mL. For the same compound, in series [2], the Caco2 permeability result is given as “not detected”. In addition, in series [3], the solubility result is recorded as “less than 5 μM”.

Regarding `CCCCN1C(=O)[C@H](CC2CCCCC2)NC(=O)C12CCN(Cc1ccc(Oc3ccc(C(=O)O)cc3)cc1)CC2.Cl` [Compound 12, 4-(4-{[(3S)-1-butyl-3-(cyclohexylmethyl)-2,5-dioxo-1,4,9-triaza-spiro[5.5]undec-9-yl]methyl}phenoxy)benzoic acid hydrochloride], in series [1] (rat, in vivo, iv, 30 mg/kg), the clearance stood at 16 mL/min/kg and the half-life is 11.1 min. In addition, in series [1] (rat, in vivo, po, 30 mg/kg), the AUC turned out to be 10500 ng·h/mL, the Cmax came out at 7200 ng/mL and the half-life was 48.4 min. The total exposure AUC(0-inf) in series [1] (rat, iv, 30 mg/kg) stood at 3090 ng·h/mL. The area under the curve AUC(0-inf) in series [1] (rat, po, 30 mg/kg) was found to be 10500 ng·h/mL. The BA in series [1] (rats, 30 mg/kg, po) amounted to 34.1%. Further, the Papp in series [4] amounted to 26.4 ×10⁻⁶ cm/s. In series [3], the solubility was found to be 26 µM. Also, in series [5], the share remaining at 0.25 h was determined as 22%.
